# Reference: article PMC5901755 (ACS chemical neuroscience, 2016)
# Target: T1, TREK-1 (Homo sapiens, UniProt O95069)
# T1 sequence (O95069 1-426): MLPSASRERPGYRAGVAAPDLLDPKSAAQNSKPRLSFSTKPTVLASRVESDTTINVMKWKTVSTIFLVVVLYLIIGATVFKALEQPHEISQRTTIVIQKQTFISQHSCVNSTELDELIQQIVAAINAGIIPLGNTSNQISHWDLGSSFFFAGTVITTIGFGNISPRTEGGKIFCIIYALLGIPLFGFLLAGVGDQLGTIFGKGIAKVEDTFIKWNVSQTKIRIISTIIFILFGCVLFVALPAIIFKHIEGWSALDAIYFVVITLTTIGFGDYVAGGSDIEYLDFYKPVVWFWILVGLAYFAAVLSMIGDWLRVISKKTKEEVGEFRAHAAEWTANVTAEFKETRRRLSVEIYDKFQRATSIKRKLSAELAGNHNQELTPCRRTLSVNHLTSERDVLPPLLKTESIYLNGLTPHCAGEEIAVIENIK
# Assay: Tl+ flux fluorescence
# Assay type: cell-based
# Settings: inhibitor; 1.8 µM, 10 min pretreatment; pH 7.3
smiles,measurement,value
CCCCC[C@H](O)/C=C/[C@H]1CC[C@H](O)[C@@H]1C/C=C\CCCC(=O)O [11-deoxy prostaglandin F2α],"Tl+ flux fluorescence (Thallos), T-REx-HEK293",we observed that 11-deoxy prostaglandin F2α inhibited TREK-1 channels
